Laboratory results taken from patent US9708323B2, “Tricyclic compounds as alpha-7 nicotinic acetylcholine receptor ligands” (BRISTOL-MYERS SQUIBB COMPANY, priority 2014, dated 2017).

These molecules were tested against T1, α-7 nicotinic ACh receptor ion channel expressed in HEK 293 cells (Rattus norvegicus, UniProt Q05941) (assay: Ca2+-sensitive, fluorescence-based assay for α-7 nicotinic acetylcholine receptor channel function in mammalian cells (FLIPR)). Conditions: Table 2, agonist Ca2+ flux, read-out: FLIPR α7 (EC50).
T1 construct: expressed in transfected cells
T1 sequence (Q05941 23-502): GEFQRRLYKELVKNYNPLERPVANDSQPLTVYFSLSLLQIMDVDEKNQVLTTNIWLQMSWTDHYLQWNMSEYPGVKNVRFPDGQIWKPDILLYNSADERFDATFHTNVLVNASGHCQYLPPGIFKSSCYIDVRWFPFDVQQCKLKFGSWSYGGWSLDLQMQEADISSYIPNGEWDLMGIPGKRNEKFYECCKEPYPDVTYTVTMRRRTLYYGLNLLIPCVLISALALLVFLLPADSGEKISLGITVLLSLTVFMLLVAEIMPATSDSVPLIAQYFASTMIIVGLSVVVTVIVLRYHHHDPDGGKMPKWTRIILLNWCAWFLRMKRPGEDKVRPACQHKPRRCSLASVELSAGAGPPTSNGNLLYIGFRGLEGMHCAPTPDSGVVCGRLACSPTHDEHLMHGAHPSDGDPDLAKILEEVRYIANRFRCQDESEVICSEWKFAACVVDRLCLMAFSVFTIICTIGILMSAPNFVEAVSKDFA
Format: cell-based
Protocol: II) A Ca^2+-Sensitive, Fluorescence-Based Assay α-7 for Nicotinic Acetylcholine Receptor Channel Function in Mammalian Cells (“FLIPR”). Summary:
Lead compounds are evaluated for agonist activity at α-7, α3β4, α4αβ2, and α1β1δ1ε sub-types of nicotinic ACh receptor ion channels expressed in mammalian HEK 293 cells. Agonist potency and efficacy values are determined from kinetic fluorescence Ca^2+ influx measurements made using a 384 well FLIPR (Fluorescence Image Plate Reader). The utility of fluorescent indicators for measuring changes in intracellular divalent cation concentrations, particularly Ca^2+, for drug discovery endeavors is well documented (Rudiger, R., et al., Nature Reviews, 2003, 4:579-586; Gonzalez J. E., et al., Receptors and Channels, 2002, 8:283-295). In this assay, channel expressing HEK cell lines seeded in 384 well assay plates are loaded with a membrane permeant fluorescent Ca^2+ indicator dye, whose 510 nm green emission signal increases in response to elevation of intracellular Ca^2+ concentration. The basal fluorescence from the cells is monitored in real time, followed by the acute addition of test compounds. If the compound is an agonist at any of the non-selective cation channels, the latter open and allow the movement of extracellular Ca^2+ ions into the cell cytoplasm, where they bind to the Ca^2+ indicator dye, and produce an increase in fluorescence output signal, which is detected by a cooled CCD imaging camera.
Reagents: The acetomethoxy (AM) ester of the Ca^2+ indicator dye Fluo-4 was obtained from InVitrogen, (Carlsbad, Calif.). Acetylcholine and all buffer constituents were purchased from Sigma Chemical Company, St. Louis, Mo. G418 and Minimal Essential Medium were purchased from InVitrogen Life Technologies, Carlsbad, Calif. Fetal bovine serum was purchased from (InVitrogen, Carlsbad, Calif.).
HEK-293 cells were grown in Minimal Essential Medium containing 10% (v/v) fetal bovine serum at 37° C. in a 5% CO2 incubator. HEK-293 cells stably expressing the ion channels were grown in the same medium with the addition of 500 μg/ml G418.
HEK-293 cells expressing the ion channels of interest were plated in 384 well, black-walled, clear-bottomed, poly-D-lysine coated plates at a density of ˜20,000 cells/well in 20 μl of Minimal Essential Medium containing 10% (v/v) fetal bovine serum and incubated for 2 days at 29° C. in a 5% CO2 incubator. Prior to assay, cells were loaded with the Fluo-4 AM ester. Cell loading was accomplished by removing the culture medium and replacing it with 30 μl/well of the AM ester of the dye (5 μM) mixed with Hanks Balanced Salt Solution (#14175-095) containing 20 mM HEPES, 2.5 mM probenecid, 0.5 mM CaCl2, 1 mM MgCl2 and 10 μM atropine. Dye loading was allowed to proceed for 90 minutes at room temperature at which time the dye loading solution was removed and replaced with 40 μl/well of Hanks buffer. Cells loaded with dye were loaded onto a FLIPR384 (Molecular Devices, Sunnyvale, Calif.). Fluo-4 dye was excited using the 488 nm line of an argon laser. Emission was filtered using a 540+/−30 nm bandpass filter. For evaluation of the effects of test compounds using the Ca^2+ flux assay, compounds to be tested were provided in assay ready plates. For nicotinic receptor ion channel expressing cells, the assay was initiated by the addition of 20 μl/well of Hanks buffer containing test compounds. For all assays, data were collected at 1 Hz for 10 seconds (baseline), at which time the compound containing stimulus buffers are added, and further measurements collected at 0.33 Hz for 3 min.
The statistical robustness of the nicotinic receptor Ca^2+ flux assays is determined from blanks and totals wells. The totals wells define maximal channel activation for each compound test plate (Maximum efficacious dose of acetylcholine), and the blanks wells which contain matched DMSO only, define zero channel activation. […]

| Structure (SMILES) | EC50 |
| --- | --- |
| O=C(c1cc2ccccc2o1)N1C[C@H]2C[N@]3CC[C@H]2[C@H]1C3 [Example 99, benzofuran-2-yl((3R,3aR,6S,7aS)-hexahydro-3,6-methanopyrrolo[2,3-c]pyridin-1(2H)-yl)methanone] | 35 µM |

Same assay, conditions: Table 3, agonist Ca2+ flux, read-out: FLIPR α7 (EC50)

| Structure (SMILES) | EC50 |
| --- | --- |
| O=C(c1cc2ccccc2s1)N1C[C@@H]2C[N@@]3CC[C@@H]2[C@@H]1C3 [Example 100, benzo[b]thiophen-2-yl((3S,3aS,6R,7aR)-hexahydro-3,6-methanopyrrolo[2,3-c]pyridin-1(2H)-yl)methanone] | 11 µM |
| Cn1nc(C(=O)N2C[C@@H]3C[N@@]4CC[C@@H]3[C@@H]2C4)c2ccccc21 [Example 101, ((3S,3aS,6R,7aR)-hexahydro-3,6-methanopyrrolo[2,3-c]pyridin-1(2H)-yl)(1-methyl-1H-indazol-3-yl)methanone] | > 100 µM |
| Cn1cc(C(=O)N2C[C@@H]3C[N@@]4CC[C@@H]3[C@@H]2C4)c2ccccc21 [Example 102, ((3S,3aS,6R,7aR)-hexahydro-3,6-methanopyrrolo[2,3-c]pyridin-1(2H)-yl)(1-methyl-1H-indol-3-yl)methanone] | > 100 µM |
| O=C(c1n[nH]c2ccc(Cl)cc12)N1C[C@@H]2C[N@@]3CC[C@@H]2[C@@H]1C3 [Example 103, ((3S,3aS,6R,7aR)-hexahydro-3,6-methanopyrrolo[2,3-c]pyridin-1(2H)-yl)(5-chloro-1H-indazol-3-yl)methanone] | > 100 µM |
| COc1ccc2c(C(=O)N3C[C@@H]4C[N@@]5CC[C@@H]4[C@@H]3C5)n[nH]c2c1 [Example 104, ((3S,3aS,6R,7aR)-hexahydro-3,6-methanopyrrolo[2,3-c]pyridin-1(2H)-yl)(6-methoxy-1H-indazol-3-yl)methanone] | > 100 µM |
| O=C(c1n[nH]c2ccc(Br)cc12)N1C[C@@H]2C[N@@]3CC[C@@H]2[C@@H]1C3 [Example 105, ((3S,3aS,6R,7aR)-hexahydro-3,6-methanopyrrolo[2,3-c]pyridin-1(2H)-yl)(5-bromo-1H-indazol-3-yl)methanone] | > 100 µM |
| O=C(c1cc2c(Cl)cccc2s1)N1C[C@@H]2C[N@@]3CC[C@@H]2[C@@H]1C3 [Example 106, 4-chlorobenzo[b]thiophen-2-yl((3S,3aS,6R,7aR)-hexahydro-3,6-methanopyrrolo[2,3-c]pyridin-1(2H)-yl)methanone] | > 100 µM |
| COc1cccc2[nH]nc(C(=O)N3C[C@@H]4C[N@@]5CC[C@@H]4[C@@H]3C5)c12 [Example 107, ((3S,3aS,6R,7aR)-hexahydro-3,6-methanopyrrolo[2,3-c]pyridin-1(2H)-yl)(4-methoxy-1H-indazol-3-yl)methanone] | 30 µM |
| O=C(c1cc2cccc(Cl)c2s1)N1C[C@@H]2C[N@@]3CC[C@@H]2[C@@H]1C3 [Example 108, 7-chlorobenzo[b]thiophen-2-yl((3S,3aS,6R,7aR)-hexahydro-3,6-methanopyrrolo[2,3-c]pyridin-1(2H)-yl)methanone] | > 100 µM |
| O=C(c1n[nH]c2cc(Cl)ccc12)N1C[C@@H]2C[N@@]3CC[C@@H]2[C@@H]1C3 [Example 109, ((3S,3aS,6R,7aR)-hexahydro-3,6-methanopyrrolo[2,3-c]pyridin-1(2H)-yl)(6-chloro-1H-indazol-3-yl)methanone] | > 100 µM |
| COc1ccc2[nH]nc(C(=O)N3C[C@@H]4C[N@@]5CC[C@@H]4[C@@H]3C5)c2c1 [Example 110, ((3S,3aS,6R,7aR)-hexahydro-3,6-methanopyrrolo[2,3-c]pyridin-1(2H)-yl)(5-methoxy-1H-indazol-3-yl)methanone] | > 100 µM |
| O=C(c1nsc2ccccc12)N1C[C@@H]2C[N@@]3CC[C@@H]2[C@@H]1C3 [Example 111, benzo[d]isothiazol-3-yl((3S,3aS,6R,7aR)-hexahydro-3,6-methanopyrrolo[2,3-c]pyridin-1(2H)-yl)methanone] | 36 µM |
| O=C(c1ccc(Cl)cc1)N1C[C@@H]2C[N@@]3CC[C@@H]2[C@@H]1C3 [Example 112, (4-chlorophenyl)((3S,3aS,6R,7aR)-hexahydro-3,6-methanopyrrolo[2,3-c]pyridin-1(2H)-yl)methanone] | > 100 µM |
| O=C(c1cc2ccccc2o1)N1C[C@@H]2C[N@@]3CC[C@@H]2[C@@H]1C3 [Example 113, benzofuran-2-yl((3S,3aS,6R,7aR)-hexahydro-3,6-methanopyrrolo[2,3-c]pyridin-1(2H)-yl)methanone] | > 100 µM |

Same assay, conditions: Table 4, agonist Ca2+ flux, read-out: FLIPR α7 (EC50)

| Structure (SMILES) | EC50 |
| --- | --- |
| O=C(c1n[nH]c2ccccc12)N1CC2CCN3CCC2C1C3 (centres unmarked) [Example 114, (hexahydro-1H-1,6-methanopyrrolo[3,4-d]azepin-2(7H)-yl)(1H-indazol-3-yl)methanone] | 0.47 µM |

Same assay, conditions: Table 5, agonist Ca2+ flux, read-out: FLIPR α7 (EC50)

| Structure (SMILES) | EC50 |
| --- | --- |
| O=C(c1n[nH]c2ccccc12)N1C2CC3CC1CN(C3)C2 [Example 115, 1,4-diazaadamantan-4-yl(1H-indazol-3-yl)methanone] | 0.073 µM |
